test system: THP-1 viability, CellTiter-Glo luminescence, 72 h; test: PubChem AID 2252

Row | SMILES | EC50 [µM]
1 | Oc1cc(Cl)ccc1Oc1ccc(Cl)cc1Cl | 28.6
2 | O=C(Nc1ccc(-c2nc3ccccc3[nH]2)cc1)c1ccco1 | 10.6
3 | CCCC(=O)c1c(NC)cc(C)oc1=O | 15.9
4 | COC(=O)c1ccc(CSc2ccc3nnc(-c4ccc(OC)c(OC)c4)n3n2)o1 | 10.3
5 | O=C(/C=C/c1ccccc1)NNC(=O)c1ccco1 | < 0.1
6 | Cc1ccc(-c2c[n+](CC(=O)Nc3nc(-c4ccccc4)cs3)c3n2CCC3)cc1 | 13.5
7 | COc1ccc(NC(=O)CC2Sc3ncnn3C2=O)cc1 (stereo not drawn) | 46.5
8 | Cc1ccc(-n2c(Cc3noc4ccccc34)n[nH]c2=S)cc1 | < 0.1
9 | N/C(=N\N=C/c1ccc(F)cc1)N/N=C\c1ccc(F)cc1 | 19
10 | N#C/C(=C\c1ccc(O)c(O)c1)C(=O)NCc1ccccc1 | 27.1
11 | O=C1C2=C(Nc3ccccc3SC2c2ccco2)c2ccccc21 (stereo not drawn) | 23.6
12 | Cc1c(Cl)cccc1Nc1nc(NCCO)c2ccccc2n1 | 10.1
13 | Clc1ccc(CN2CCc3c([nH]c4ccccc34)C2)cc1Cl | 8.16
14 | O=C(N/N=C\c1cccc([N+](=O)[O-])c1O)C1COc2ccccc2O1 (stereo not drawn) | 25.4
15 | N/C(=N\OC(=O)N1CCOCC1)c1ccccc1 | 15.5
16 | O=[N+]([O-])c1cccc2c(N3CCCC3)ccnc12 | 9.77
17 | CNCCCC1c2ccccc2C=Cc2ccccc21 | 24.5
18 | CCCCCCCCCCCCCCCC[n+]1ccc(C(N)=O)cc1 | 0.68
19 | CN(C)CC/C=C1/c2ccccc2Sc2ccc(Cl)cc21 | 10.1
20 | c1ccc(CN2CCC(Nc3nc(-c4ccccc4)nc4ccccc34)CC2)cc1 | 17.6

Row | SMILES | EC50 [µM]
21 | Cc1ccc2sc(N(CCCN(C)C)C(=O)c3ccc(Br)s3)nc2c1C | 21.2
22 | CCCCn1c(NCc2ccccc2NS(=O)(=O)c2ccc(C)cc2)nc2ccccc21 | 24.3
23 | COc1ccc(C(=O)NC(=S)NNC(=O)c2cnccn2)cc1 | 2.98
24 | Cc1cc(C)nc(/N=C(\N)Nc2ccc(SC(F)F)cc2)n1 | 12.8
25 | CCCCC(CC)CN=C(N)NC(N)=NCCCCCCN=C(N)NC(N)=NCC(CC)CCCC (stereo not drawn) | 0.83
26 | CCc1cccc(NC(=O)CSC2=NS(=O)(=O)c3ccccc32)c1 | 15.6
27 | COc1ccc(C(C[N+](=O)[O-])C2(c3ccc(OC)c(OC)c3)C(=O)c3ccccc3C2=O)cc1 (stereo not drawn) | 9.85
28 | OCCCCNCc1ccc(OCc2ccccc2Cl)cc1 | 34.6
29 | CN1CCN(/N=C/c2c3ccccc3c(Cl)c3ccccc23)CC1 | 13.1
30 | CN(C)CC/C=C1\c2ccccc2Sc2ccc(Cl)cc21 | 17
31 | O=S1(=O)Nc2c(ccc3cccnc23)-c2ccccc21 | 1.2
32 | [O-][n+]1c2c(c3c4non(O)c4ccc31)CCCC2 | 47.7
33 | CC(C)[C@@H](C(=O)NC1CCCC1)N1C(=O)N2CCc3c([nH]c4ccccc34)[C@@]2(C)C1=O | 45.5
34 | Clc1ccc2[nH]c3c(c2c1)CCc1cn[nH]c1-3 | 31.3
35 | Cn1ncnc2c(=O)n(C)c(=O)nc1-2 | 1.38
36 | Cc1ccc(C(OCC(O)CNCc2ccc(F)cc2)c2ccccc2)cc1 (stereo not drawn) | 13
37 | O=[N+]([O-])c1ccc(O)c(/C=N/Nc2ccccn2)c1 | 0.42
38 | CN1CCN(c2ccccc2NC(=O)c2cc3c(s2)-c2ccccc2OC3)CC1 | 9.73
39 | CC[C@@H](C)[C@H](CNC)NC[C@@H](Cc1cccc2ccccc12)NCCc1cccc(C(F)(F)F)c1 | 5.86
40 | CN1CC(C(=O)c2ccc(Cl)cc2)C(c2ccc(Cl)cc2Cl)C1 (stereo not drawn) | 27.5

Row | SMILES | EC50 [µM]
41 | Cc1c(CCOC(=O)C2C3CC4CC(C3)CC2C4)sc[n+]1CC(=O)c1ccc(Br)cc1 (stereo not drawn) | 6.34
42 | CCN1CCN(CCNC(=O)c2ccc(/C=C3/Sc4ccccc4N(Cc4cccc(C)c4)C3=O)cc2)CC1 | 8.21
43 | Cc1nc(N=Nc2ccc(O)cc2)n[nH]1 | 28.2
44 | N=c1n(CCN2CCCCC2)c2ccccc2n1CC(O)c1ccc(Cl)c(Cl)c1 (stereo not drawn) | 4.6
45 | CCN(CC)CCCCCCCCOC(=O)c1cc(OC)c(OC)c(OC)c1 | 47.9
46 | CC1CCN(c2nc3ccc(C(=O)NCCCN4CCCCC4)cc3s2)CC1 | 30.7
47 | CN(C)CCCn1c(SCC(=O)N2c3ccccc3Sc3ccccc32)nc2ccccc2c1=O | 14.2
48 | CCCCCCCCCCOC(=O)Cn1c(COc2ccc(Cl)cc2)[n+](C)c2ccccc21 | 1.92
49 | O=C(/C=C/c1cc(Br)ccc1O)c1ccco1 | 8.79
50 | CN(CC(=O)Nc1ccc(F)c(F)c1F)c1cnccn1 | 19.6
51 | O=C(CCN1CCN(C(=O)c2ccccc2)CC1)c1ccc(Br)cc1 | 40.5
52 | CCOC(=O)c1c(-c2ccc(-c3ccccc3)cc2)csc1NC(=O)CNCCN(C)C | 7.38
53 | CC(C)(C)c1ccc(OCCCCCCN2CCNCC2)cc1 | 13.8
54 | COc1ccc(NC(=O)CN(C)S(=O)(=O)c2ccc(Cl)cc2)cc1Cl | < 0.1
55 | CCN(CC)CCn1c(=N)n(CC(O)COc2cccc(C)c2)c2ccccc21 (stereo not drawn) | 16.2
56 | CCCCCCCCCCOC(=O)Cn1c(COc2cccc(C)c2)[n+](C)c2ccccc21 | 2.43
57 | Nc1cccc2nc3ccccc3cc12 | 5.32
58 | Oc1ccc(C=Nc2cccc3ncccc23)c(O)c1 | 3.33
